Consider 9 compounds from paper PMC7994622, “Eryptosis and Malaria: New Experimental Guidelines and Re-Evaluation of the Antimalarial Potential of Eryptosis Inducers” (Frontiers in Cellular and Infection Microbiology, 2021).

“Also recorded” adds a separate entry of the source. Where a name gives a salt, the structure may show the parent alone. Read-outs that look alike come from different tables or passages of the source.

Data set [1] deals with naïve erythrocytes. In words: Eryptosis assay by flow cytometry (PS exposure, cell size, intracellular calcium) on naïve erythrocytes. The conditions noted are these: for Eryptosis hallmarks, naïve erythrocytes: 4 h in iRPMI, 1, 5, 10 μM (ionomycin 1 μM), PS exposure, cell size, intracellular calcium, hemolysis, significant changes. In kind it is cell-based, human. The procedure:
(§1) Use of human erythrocytes was approved by the La Trobe University Research Ethics Committee (ethics number HEC17‐013) and an Australian Red Cross Blood Service Agreement (Deed 19-05VIC-01). Red blood cell populations are intrinsically heterogeneous and variable between donors, therefore each experiment presented in this study was conducted a minimum of three independent times, each with a different batch of blood. Human red cells were processed as soon as possible upon collection to minimize erythrocyte aging. Naïve (non-infected) erythrocytes and Plasmodium falciparum 3D7-infected erythrocytes were cultured at 37°C, in low oxygen conditions (1% O2, 5% CO2, 94% N2), at 4% or 0.4% hematocrit, in incomplete RPMI media (iRPMI: RPMI 1640 HEPES, 50 mg/L hypoxanthine, 10 mg/L gentamicin, pH 6.74), complete RPMI media (cRPMI: incomplete RPMI supplemented with 2.25 g/L sodium bicarbonate and 5 g/L AlbuMAX II), or Ringer solution (1mM CaCl2, 5mM glucose, 32 mM HEPES pH 7.4, 5 mM KCl, 1mM MgSO4, 125mM NaCl). P. falciparum standard in vitro culture conditions were conducted as previously described ([Trager and Jensen, 1976]).
(§2) Drug assays measuring eryptosis were carried out in 100 μl or 500 μl of culture when using 4% or 0.4% hematocrit conditions, respectively. DMSO, the vehicle, was used for the no-drug conditions. Cells were incubated at 37°C, in low oxygen conditions for 1 h to 48 h depending on the assay. Each experiment was performed in triplicate unless otherwise indicated and cells were analyzed by flow cytometry. […] Cells were washed in staining buffer (5 mM CaCl2, 5 mM glucose, 32 mM HEPES pH7.4, 5 mM KCl, 1 mM MgSO4, 125 mM NaCl), resuspended in 0.3 μM of intracellular calcium dye x-Rhod-1 AM (Invitrogen) and incubated in the dark at 37°C for 30 min. Subsequently, cells were washed in staining buffer and incubated with Annexin V-PE (1:20 dilution in staining buffer; BD Bioscience) at 37°C for 20 min in the dark for the staining of surface-exposed phosphatidylserine. Cells were resuspended in 200 μl staining buffer and analyzed within the hour using a CytoFLEX S flow cytometer (Beckman Coulter). 100,000 total events were recorded for each condition at a flow rate of 10 μl/min. Data were analyzed using FlowJo V10. For PS exposure measure, gating was set using data obtained with naïve erythrocytes DMSO control. Infected cells were gated using Hoechst fluorescence. The percentage of Annexin V-PE positive cells, the mean forward scatter height (FSC-H) and mean x-Rhod-1 fluorescence area (PE-A) were acquired for naïve and infected-erythrocytes.
(A flow cytometer gives signals particle by particle.)

Data set [2] relates to P. falciparum-infected erythrocytes. In words: Eryptosis assay by flow cytometry on P. falciparum-infected erythrocytes. In kind it is cell-based, human. The following applies: 4 h in iRPMI, 4% hematocrit, 1, 5, 10 μM (ionomycin 1 μM), PS exposure, cell size, intracellular calcium, hemolysis, significant changes. The procedure: as §1, §2
A further data set relates to erythrocytes. The following applies: cited from earlier work.
In data set [3] the test system is P. falciparum. The following applies: cited from earlier work.
The test system of another data set is P. berghei. The following applies: cited from earlier work.
Data set [4] concerns P. falciparum. Nature of the data set: Parasite growth inhibition assay (SYBR Gold, 72 h). Type of data set: cell-based, Plasmodium falciparum 3D7. The procedure:
as §1
Compound-induced parasite growth inhibition was measured as previously described ([Morahan et al., 2020]). Briefly, an asynchronous parasite culture at 0.25% parasitemia and 2% hematocrit was incubated in a 96-well plate with a two-fold serial dilution of compound over 72 h in standard culture conditions (cRPMI, 37°C, low oxygen). Compounds (at 10 mM in DMSO) were added to the first well of the dilution series to produce a 50 µM drug concentration (and 0.5% (v/v) DMSO) and diluted two-fold until a concentration of 0.19 nM compound was reached. Each condition was conducted in triplicates, subject to a freeze/thaw cycle and incubated with the DNA intercalant SYBR Gold following manufacturer instructions (SYBR™ Gold Nucleic Acid Stain, Invitrogen). The average fluorescence between triplicates was measured at 495 nm using a CLARIOstar® microplate reader and analyzed as a proxy of parasite replication.

For data set [5], the system named is naïve erythrocytes. In words: Hemolysis assay (absorbance 405 nm) on naïve erythrocytes. In kind it is cell-based, human. The following applies: 48 h. From the text:
Absorbance of culture media alone was considered as baseline.

Where [6] appears, read: Plasmodium falciparum, asynchronous culture, cRPMI, up to 50 µM, N=5, read-out: P. falciparum IC50.
[7] abbreviates: asynchronous culture, cRPMI, up to 50 µM, N=5, read-out: P. falciparum IC50.
Setting [8] is: 1 μM, 1 h, iRPMI, 4% hematocrit.

In the case of `CCCCc1oc2ccccc2c1C(=O)c1cc(I)c(OCCN(CC)CC)c(I)c1` [Amiodarone, amiodarone HCl], the “Eryptosis hallmarks, naïve erythrocytes” value with naïve erythrocytes [1] (4% hematocrit) was “↑ Calcium (5 μM)”. Further, the “Eryptosis hallmarks, P. falciparum-infected erythrocytes” value in data set [2] is “Ns”. Moreover, the “Published eryptosis induction concentration” value in the data set on erythrocytes (naïve erythrocytes, ref Nicolay et al., 2007) is 5 µM, ([Nicolay et al., 2007]); in the data set on erythrocytes (naïve erythrocytes, ref Nicolay et al., 2007, listed as amiodarone), 5 µM. In the data set with P. falciparum [3] (Pf in vitro, ref Bobbala et al., 2010b), the “Effect on P. falciparum: parasitemia” value was “Reduced parasitemia”. The “Effect on P. berghei: parasitemia” value in the data set on P. berghei (Pb in vivo, ref Bobbala et al., 2010b) is “Reduced parasitemia”. The “Effect on P. berghei: mice survival” value with P. berghei (Pb, ref Bobbala et al., 2010b) is reported as “increased mice survival”.
As to `CNC(=O)c1cc(Oc2ccc(NC(=O)Nc3ccc(Cl)c(C(F)(F)F)c3)cc2)ccn1` [BAY 43-9006, Sorafenib], the IC50 (commonly the concentration needed to halve the response being measured) in the data set on P. falciparum [4] (setting [6]) is below 10 µM; in the data set with P. falciparum [4] (setting [7]), 7.48 µM. The “percentage of PS-exposing cells” value in the data set with naïve erythrocytes [1] (10 µM, 48 h, Ringer solution, 0.4% hematocrit) was determined as 41%; with naïve erythrocytes [1] (10 µM, 48 h, Ringer solution, 4% hematocrit), 10%. Besides, in the data set with naïve erythrocytes [1] (10 µM, 48 h, cRPMI, 4% hematocrit), the PS exposure result was “no significant increase”. In addition, the “Eryptosis hallmarks, naïve erythrocytes” value with naïve erythrocytes [1] (4% hematocrit) was “Ns”. Moreover, the “Eryptosis hallmarks, P. falciparum-infected erythrocytes” value in data set [2] is reported as “Ns”. The hemolysis result with naïve erythrocytes [5] (10 µM, Ringer, 0.4% hematocrit) is recorded as “significantly induced hemolysis”; in the data set on naïve erythrocytes [5] (10 µM, Ringer, 4% hematocrit), “not”; in the data set with naïve erythrocytes [5] (10 µM, cRPMI, 4% hematocrit), “not”.
Regarding `O=c1cc(-c2ccc(O)cc2)oc2cc(O)cc(O)c12` [Apigenin, apigenin], the IC50 in the data set on P. falciparum [4] (setting [7]) is 65.8 µM; with P. falciparum [3] (in vitro, ref Fallatah and Georges, 2017, read-out: P. falciparum IC50, previously published) it was 36 µM. Also, the “Eryptosis hallmarks, naïve erythrocytes” value in the data set on naïve erythrocytes [1] (4% hematocrit) is recorded as “Ns”. For the same compound, the “Eryptosis hallmarks, P. falciparum-infected erythrocytes” value in data set [2] was “Ns”. Further, the “Published eryptosis induction concentration” value with erythrocytes (naïve erythrocytes, ref Zbidah et al., 2012) was 15 µM, ([Zbidah et al., 2012]); in the data set on erythrocytes (naïve erythrocytes, ref Zbidah et al., 2012, listed as apigenin), 15 µM. The “Effect on P. berghei: parasitemia” value in the data set with P. berghei (Pb, ref Amiri et al., 2018) was “Decreased parasitemia (Pb) ([Amiri et al., 2018])”.
As to `Nc1ncnc2c1ncn2[C@@H]1O[C@H](CO)C[C@H]1O` [Cordycepin, cordycepin], the IC50 in the data set with P. falciparum [4] (setting [6]) was 12 µM; in the data set with P. falciparum [4] (asynchronous culture, cRPMI, up to 50 µM, N=5, listed as cordycepin, read-out: P. falciparum IC50), above 10 µM; in the data set on P. falciparum [4] (setting [7]) it was 12.1 µM. In the data set on naïve erythrocytes [1] (4% hematocrit), the “Eryptosis hallmarks, naïve erythrocytes” value is recorded as “Ns”. Also, the “Eryptosis hallmarks, P. falciparum-infected erythrocytes” value in data set [2] is “Ns”. In addition, the “Published eryptosis induction concentration” value with erythrocytes (mouse erythrocytes, ref Lui et al., 2007) is 31 µM, ([Lui et al., 2007]); in the data set with erythrocytes (mouse erythrocytes, ref Lui et al., 2007, listed as cordycepin), 31 µM.
In the case of `CC(C)(C)CC(C)(C)c1ccc(OCCOCC[N+](C)(C)Cc2ccccc2)cc1` [Benzethonium, benzethonium chloride], the “Eryptosis hallmarks, naïve erythrocytes” value in the data set with naïve erythrocytes [1] (4% hematocrit) is “Ns”. The “Eryptosis hallmarks, P. falciparum-infected erythrocytes” value in data set [2] is listed as “Ns *”.
`C[C@H](CCC(=O)O)C[C@H](C)C[C@H](C)C(=O)/C=C(\O)[C@H](C)C[C@H](C)C/C=C/[C@@H](C)[C@@H](O)[C@@H](C)[C@@H](O)C[C@@H]1CC[C@@](C)([C@H]2CC[C@@](C)([C@@H](C)O)O2)O1` [Ionomycin, ionomycin]: the “increase in PS exposure compared to the no-drug condition” value in the data set on naïve erythrocytes [1] (1 μM, 1 h, Ringer solution, 4% hematocrit) is 62 fold; with naïve erythrocytes [1] (setting [8]), 45 fold. Also, the PS exposure with naïve erythrocytes [1] (1 μM, 1 h, Ringer, 4% hematocrit) amounted to 6.6%; in the data set on naïve erythrocytes [1] (setting [8]), 4.4%; with naïve erythrocytes [1] (1 μM, 24 h, Ringer+Albumax, 4% hematocrit), 13.2%; in the data set on naïve erythrocytes [1] (1 μM, 48 h, Ringer+Albumax, 4% hematocrit) it was 22%; in the data set on naïve erythrocytes [1] (1 μM, 48 h, Ringer, 4% hematocrit), 24%; with naïve erythrocytes [1] (1 μM, 48 h, iRPMI+Albumax, 4% hematocrit), 15%. Also, the PS exposure in the data set with naïve erythrocytes [1] (1 μM, 48 h, iRPMI+Albumax, 4% hematocrit, listed as ionomycin) is 14.6%; with naïve erythrocytes [1] (1 μM, 48 h, iRPMI, 4% hematocrit), 23%. In addition, the “Eryptosis hallmarks, naïve erythrocytes” value with naïve erythrocytes [1] (4% hematocrit) was “↑ PS exposure ↓ Cell Size (1 μM)”; in the data set with naïve erythrocytes [1] (4% hematocrit, listed as ionomycin), “significant increase of PS exposure and a decrease in cell size”. For the same compound, the “Eryptosis hallmarks, P. falciparum-infected erythrocytes” value is “↑ PS exposure ↓ Cell Size (1 μM)” in data set [2]; “significant increase of PS exposure and a decrease in cell size” in data set [2] (listed as ionomycin). Further, the hemolysis entry in the data set with naïve erythrocytes [5] (1 μM, Ringer or iRPMI with addition of Albumax, 4% hematocrit) is reported as “abolish ionomycin-induced hemolysis”. In addition, the “hemolysis (OD405)” value worked out at 20.5 with naïve erythrocytes [5] (1 μM, Ringer, 4% hematocrit) and 5.5 with naïve erythrocytes [5] (1 μM, iRPMI, 4% hematocrit).
For the compound `C[C@@H]1CC[C@H]2[C@@H](C)C(=O)O[C@@H]3O[C@@]4(C)CC[C@@H]1[C@]32OO4` [artemisinin], the IC50 in the data set on P. falciparum [4] (Plasmodium falciparum, asynchronous culture, cRPMI, read-out: P. falciparum IC50) is 0.012 µM.
For `C=C1C(=O)[C@]23[C@H](O)[C@H]1CC[C@H]2[C@@]12CO[C@]3(O)[C@@H](O)[C@@H]1C(C)(C)CC[C@@H]2O` [Oridonin, oridonin], the values for the IC50 in the data set on P. falciparum [4] (setting [6]) and with P. falciparum [4] (setting [7]) were around 2 µM and at most 2 µM, respectively. Also, the “Eryptosis hallmarks, naïve erythrocytes” value in the data set on naïve erythrocytes [1] (4% hematocrit) is reported as “Ns”; in the data set on naïve erythrocytes [1] (4% hematocrit, listed as oridonin), “did not induce statistically significant changes; also recorded: no significant increase”. Moreover, the entries for the “Eryptosis hallmarks, P. falciparum-infected erythrocytes” value in data set [2] and in data set [2] (listed as oridonin) were “Ns” and “did not induce statistically significant changes; also recorded: no significant increase”, respectively. For the same compound, the “Published eryptosis induction concentration” value in the data set on erythrocytes (naïve erythrocytes, ref Jilani et al., 2011) is 25 µM, ([Jilani et al., 2011]); with erythrocytes (naïve erythrocytes, ref Jilani et al., 2011, listed as oridonin), 25 µM.
For `CCN(CC)CCCC(C)Nc1ccnc2cc(Cl)ccc12` (stereo not drawn) [chloroquine], the IC50 with P. falciparum [4] (Plasmodium falciparum, read-out: P. falciparum IC50, asynchronous culture, cRPMI, 72 h) was 0.022 µM.
